US20230226013A1, “COMPOSITION AND METHOD FOR TREATING CANCER” (Carmel-Haifa University Economic Corp Ltd., priority 2019, published 2023)

Experiments:
[1] = tested on: HPAF-II and PL45 human pancreatic cancer cells; experiment: XTT assay, cell viability / proliferation; assay type: cell-based
Method: Reference is now made to FIG. 4, presenting the effect of Striatal C on the viability of HPAF-II and PL45 human pancreatic cancer cells, in comparison to the effect of the Cyathus striatus CBS 126585 extract on the same cells, wherein the measurements of the effects are based on an XTT assay. Particularly, cell proliferation was determined using the sodium 3′-[1-(phenylaminocarbonyl)-3,4-tetrazolium]-bis (4-methoxy-6-nitro) benzene sulfonic acid hydrate (XTT) assay, according to the manufacturer’s instructions (Biological Industries, Beit Haemek, Israel).

[2] = tested on: HPAF-II and PL45 human pancreatic cancer cells; experiment: Annexin-V/PI assay, induction of apoptosis; assay type: cell-based; details: low doses, 4 hours of exposure
Method: Particularly, Cell death was analyzed by staining the cells with FITC-labeled Annexin V and propedium iodide (PI) using an Annexin V-FITC apoptosis detection kit, (MBL, Nagoya, Japan), according to the manufacturer’s instructions.

[3] = Stability of the isolated compound (solid state; in dichloromethane solution); assay type: physicochemical; details: solid state conditions at -20° C.
Method: 2. The isolated compound was stable and pure (purity > 95% by HPLC) at solid state conditions at -20° C.
4. During NMR experiments observed partially isomerization of isolated compound. The dissolving in dichloromethane at 20 mg/ml concentration leads to steady state between major and minor isomers with ratio ~75:25. HPLC analyses of NMR solution show only one peak of isolated compound.

stability at solid state [3]	SMILES	most effective concentration ([1]; control 0 µg/ml)	effect on cell viability ([1]; low doses, 4 hours of exposure)	induction of apoptosis [2]
	CC(C)C1=C2C3=CC=C(C=O)[C@@H]4C(O[C@@H]5OC[C@@H](O)C(=O)[C@@]54O)[C@]3(C)CC[C@@]2(C)CC1 (stereo partly shown) [Striatal C]	10 µg/mL	profound decrease in cell viability	induction of apoptosis
stable	CC(C)C1=C2[C@H]3[C@@H](O)C=C(C=O)[C@@H]4C(O[C@@H]5OC[C@@H](O)C(=O)[C@@]54O)[C@]3(C)CC[C@@]2(C)CC1 (stereo partly shown) [isolated compound]			
